Experimental data: patent publication US5036070A, “Polycyclic phenalkyl amines as psychotropic agents” (American Home Products Corporation, priority 1990, dated 1991)

What was measured:
[1] = biological target: T1, 5-HT1A serotonin receptor (Rattus norvegicus, UniProt P19327); assay: Serotonin 5-HT1A receptor binding (displacement of [3H]-8-OHDPAT); parameters: from tissue; details: [3H]-8-OHDPAT displacement
T1 sequence (P19327 1-422): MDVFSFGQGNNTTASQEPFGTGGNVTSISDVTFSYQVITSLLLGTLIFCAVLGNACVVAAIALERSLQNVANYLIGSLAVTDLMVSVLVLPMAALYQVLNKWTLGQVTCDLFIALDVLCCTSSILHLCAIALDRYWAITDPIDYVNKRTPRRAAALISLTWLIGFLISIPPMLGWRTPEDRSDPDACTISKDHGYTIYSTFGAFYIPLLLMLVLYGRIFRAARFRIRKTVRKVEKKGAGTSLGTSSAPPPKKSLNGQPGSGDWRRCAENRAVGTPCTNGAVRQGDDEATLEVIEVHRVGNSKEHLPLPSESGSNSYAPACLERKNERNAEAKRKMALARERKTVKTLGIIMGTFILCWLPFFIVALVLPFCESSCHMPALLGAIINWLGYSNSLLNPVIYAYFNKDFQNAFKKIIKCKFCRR
Excerpt: High affinity for the serotonin 5-HT1A receptor was established by testing the claimed compounds ability to displace [^3 H]-8-OHDPAT (dipropylaminotetralin) from the 5-HT1A serotonin receptor following the procedure of Hall et al., J. Neurochem. 44, 1685 (1985). […] The anxiolytic activity of buspirone is believed to be, at least partially, due to its 5-HT1A receptor affinity (Vander Maclen et al., Eur. J. Pharmacol. 1986, 129 (1-2), 133-130.

dopamine D-2 receptor = biological target: T2, dopamine D-2 receptor (Rattus norvegicus, UniProt P61169); assay: Dopamine D-2 receptor binding ([3H]-spiroperidol, homogenized limbic brain tissue)
T2 construct: from tissue; host or cells: homogenized limbic brain tissue
Procedure: High affinity for the dopamine D-2 receptor was established by the standard experimental test procedure of Fields et al., Brain Res., 136, 578 (1977) and Yamamura et al., eds. Neutrotransmitter Receptor Binding, Raven Press, N.Y. (1978) wherein homogenized limbic brain tissue is incubated with ^3 H-spiroperidol and various concentrations of test compound, filtered and washed and shaken with Hydrofluor scintillation cocktail (National Diagnostics) and counted in a Packard 460 CD scintillation counter.

[2] = biological target: T1, 5-HT1A serotonin receptor; details: standard for anxiolytic activity; cited from earlier work

T2 sequence (P61169 whole entry): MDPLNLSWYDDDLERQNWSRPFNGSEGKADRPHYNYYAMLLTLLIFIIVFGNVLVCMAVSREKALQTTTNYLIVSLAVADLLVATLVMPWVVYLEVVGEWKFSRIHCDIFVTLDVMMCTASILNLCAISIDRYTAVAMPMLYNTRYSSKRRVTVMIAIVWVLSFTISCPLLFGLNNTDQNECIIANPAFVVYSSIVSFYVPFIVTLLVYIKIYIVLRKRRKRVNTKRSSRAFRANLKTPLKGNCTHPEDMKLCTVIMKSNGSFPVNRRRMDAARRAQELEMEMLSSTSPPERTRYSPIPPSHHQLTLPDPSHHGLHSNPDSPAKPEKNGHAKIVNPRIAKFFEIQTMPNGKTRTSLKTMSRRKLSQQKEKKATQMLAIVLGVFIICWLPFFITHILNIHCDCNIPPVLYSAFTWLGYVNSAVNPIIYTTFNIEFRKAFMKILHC

| inhibition at 1 µM [1] [%] | inhibition at 1 µM (dopamine D-2 receptor) [%] | SMILES | affinity for the 5-HT1A serotonin receptor subtype (in words) [2] |
| --- | --- | --- | --- |
| 91 | 85 | c1cnc(N2CCN(CCCOc3ccc4c(c3)CCC4)CC2)nc1 [Example 1] |  |
| 43 |  | Fc1ccc(C(c2ccc(F)cc2)N2CCN(CCCOc3ccc4c(c3)CCC4)CC2)cc1 [Example 2, 1-[4-[3-[(2,3-Dihydro-1H-indan-5-yl)oxy]propyl]-1-piperazinyl]bis(4-fluorophenyl)methane] |  |
| 48 | 82 | Clc1cncc(N2CCN(CCCOc3ccc4c(c3)CCC4)CC2)n1 [Example 3] |  |

More lines, now with the values behind:

| SMILES | inhibition at 1 µM [1] [%] | inhibition at 1 µM (dopamine D-2 receptor) [%] | affinity for the 5-HT1A serotonin receptor subtype (in words) [2] |
| --- | --- | --- | --- |
| c1ccc2c(c1)OCC(CNCCCCOc1ccc3c(c1)CCC3)O2 (stereo not drawn) [Example 4, N-[4-[(2,3-Dihydro-1H-indan-5-yl)oxy]butyl]-2,3-dihydro-1,4-benzodioxan-2-methanamine] | 92 | 97 |  |
| c1ccc2c(c1)OCC(CNCCOc1ccc3c(c1)CCC3)O2 (stereo not drawn) [Example 5, N-[2-[(2,3-Dihydro-1H-indan-5-yl)oxy]ethyl]-2,3-dihydro-1,4-benzodioxan-2-methanamine] | 76 | 100 |  |
| c1ccc2c(c1)OCC(CNCCCOc1ccc3c(c1)CCC3)O2 (stereo not drawn) [Example 6, N-[3-[(2,3-Dihydro-1H-indan-5-yl)oxy]propyl]-2,3-dihydro-1,4-benzodioxan-2-methanamine] | 99 | 95 |  |
| O=C1CC2(CCCC2)CC(=O)N1CCCCN1CCN(c2ncccn2)CC1 [buspirone] |  |  | potent affinity |
